Test results reported in ChEMBL document CHEMBL1158734, “Chemical conversion of nocathiacin I to nocathiacin II and a lactone analogue of glycothiohexide alpha” (2005).
Converted amounts (≈) assume the structure as drawn.

How the values were obtained:
Type in all cases: functional
Staphylococcus aureus [1] = assay: Antibacterial activity against Staphylococcus aureus A15090
Streptococcus pneumoniae = assay: Antibacterial activity against Streptococcus pneumoniae A28272
Enterococcus faecalis = assay: Antibacterial activity against Enterococcus faecalis A20688
Staphylococcus aureus [2] = assay: Protective activity against Staphylococcus aureus A15090 infected in sc dosed mouse; conditions: read-out: PD50

| Structure (SMILES) | MIC (Staphylococcus aureus [1]) | MIC (Streptococcus pneumoniae) | MIC (Enterococcus faecalis) | ED50 (Staphylococcus aureus [2]) |
| --- | --- | --- | --- | --- |
| C=C(NC(=O)c1csc(-c2nc3c(cc2O)-c2nc(cs2)C(=O)N[C@@H]([C@@H](C)O)C(=O)N/C(=C(\C)OC)c2nc(cs2)C(=O)N[C@@H]2c4nc(cs4)C(=O)N[C@@H](COC(=O)c4c5c6c(cccc6n4O)COC(=O)[C@@H](O[C@H]4C[C@](C)(O)[C@H](N(C)C)[C@H](C)O4)[C@H]2OC5)c2nc-3cs2)n1)C(N)=O [MJ347-81F4 A] | 7 ng/mL (≈ 4.87 nM) | 2 ng/mL (≈ 1.39 nM) | 30 ng/mL (≈ 20.9 nM) | 0.31 mg/kg |
| C=C(NC(=O)c1csc(-c2nc3c(cc2O)-c2nc(cs2)C(=O)N[C@@H]([C@@H](C)O)C(=O)N/C(=C(\C)OC)c2nc(cs2)C(=O)N[C@@H]2c4nc(cs4)C(=O)N[C@@H](COC(=O)c4[nH]c5cccc6c5c4CO[C@@H]2[C@H](O[C@H]2C[C@](C)(O)[C@H](N(C)C)[C@H](C)O2)C(=O)OC6)c2nc-3cs2)n1)C(N)=O [NOCATHIACIN II] | 7 ng/mL (≈ 4.92 nM) | 0.5 ng/mL (≈ 0.352 nM) | 150 ng/mL (≈ 106 nM) | < 0.62 mg/kg |
| CO/C(C)=C1/NC(=O)[C@H]([C@@H](C)O)NC(=O)c2csc(n2)-c2cc(O)c(-c3nc(C(N)=O)cs3)nc2-c2csc(n2)[C@@H]2COC(=O)c3c4c5c(cccc5n3O)COC(=O)[C@@H](O[C@H]3C[C@](C)(O)[C@H](N(C)C)[C@H](C)O3)[C@@H](OC4)[C@H](NC(=O)c3csc1n3)c1nc(cs1)C(=O)N2 [NOCATHIACIN IV] | 3 ng/mL (≈ 2.19 nM) | 1 ng/mL (≈ 0.731 nM) | 7 ng/mL (≈ 5.12 nM) | 1.07 mg/kg |
| CO/C(C)=C1/NC(=O)[C@H]([C@@H](C)O)NC(=O)c2csc(n2)-c2cc(O)c(-c3nc(C(N)=O)cs3)nc2-c2csc(n2)[C@@H]2COC(=O)c3[nH]c4cccc5c4c3CO[C@H]([C@H](O[C@H]3C[C@](C)(O)[C@H](N(C)C)[C@H](C)O3)C(=O)OC5)[C@H](NC(=O)c3csc1n3)c1nc(cs1)C(=O)N2 [THIAZOMYCIN C] | 60 ng/mL (≈ 44.4 nM) | 30 ng/mL (≈ 22.2 nM) | 125 ng/mL (≈ 92.4 nM) | 4.35 mg/kg |
